These results are taken from patent US20110059910A1, “Novel aromatic fluoroglycoside derivatives, pharmaceuticals comprising said compounds and the use thereof” (SANOFI-AVENTIS, priority 2008, published 2011).

As usually defined, the IC50 is the concentration needed to halve the response being measured.

A value given as a limit tells only on which side of the number the result lay.

In this test the target is T1, human sodium-dependent glucose transporter 1 (SGLT1, SLC5A1) (Homo sapiens, UniProt P13866).
T1 construct: Bases 11 to 2005 correspond to the complete coding region of human SGLT1; expressed in transfected cells
T1 sequence (P13866 1-664): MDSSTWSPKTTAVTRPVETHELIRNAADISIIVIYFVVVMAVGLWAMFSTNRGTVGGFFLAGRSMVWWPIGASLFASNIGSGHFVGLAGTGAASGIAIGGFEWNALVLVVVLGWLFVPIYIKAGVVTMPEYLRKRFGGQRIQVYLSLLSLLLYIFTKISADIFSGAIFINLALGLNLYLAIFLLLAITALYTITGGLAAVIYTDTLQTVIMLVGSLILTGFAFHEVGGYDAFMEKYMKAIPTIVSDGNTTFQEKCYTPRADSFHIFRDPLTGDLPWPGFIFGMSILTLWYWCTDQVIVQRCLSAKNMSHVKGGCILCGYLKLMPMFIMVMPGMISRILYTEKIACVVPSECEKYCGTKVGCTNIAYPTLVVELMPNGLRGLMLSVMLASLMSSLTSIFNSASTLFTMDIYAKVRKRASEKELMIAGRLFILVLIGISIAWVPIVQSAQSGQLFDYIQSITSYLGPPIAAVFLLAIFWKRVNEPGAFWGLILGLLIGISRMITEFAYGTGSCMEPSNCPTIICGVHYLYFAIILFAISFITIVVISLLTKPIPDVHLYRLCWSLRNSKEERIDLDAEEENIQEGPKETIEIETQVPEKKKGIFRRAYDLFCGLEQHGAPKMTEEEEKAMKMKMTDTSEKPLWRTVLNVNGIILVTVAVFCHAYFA
In words: Inhibition of the transport activity of human SGLT1 in vitro (α-MDG uptake in CHO-TRex-hSGLT1 cells). Type of test: cell-based. As to conditions: 50 μM α-MDG, 30 min at room temperature. The source says:
Inhibition of the Transport Activity of the Human Sodium-Dependent Glucose Transporter 1 (SGLT1, SLC5A1) In Vitro:
1. Cloning of an Expression Vector for Human SGLT1
The cDNA for human SGLT1 was introduced into the pcDNA4/TO vector (Invitrogen) by means of standard methods of molecular biology as described in Sambrook et al. (Molecular Cloning, A Laboratory Manual, Second Edition). […] Bases 11 to 2005 correspond to the complete coding region of human SGLT1.
2. Production of a Recombinant Cell Line with Inducible Expression of Human SGLT1
The expression vector for human SGLT1 was introduced into CHO-TRex cells (Invitrogen) by means of FuGene6 lipofection (Roche). To select single cell clones, 600 μg/ml of Zeocin (Invitrogen) was added to the cell culture medium (nutrient mixture F-12 (Ham), Invitrogen) supplemented with 10% fetal calf serum (BD Biosciences), 10 μg/ml Blasticidin S(CN Biosciences), 100 units/ml penicillin, 100 units/ml streptomycin). The functionality of the single cell clones resulting from the selection was tested via their uptake activity for radiolabeled methyl-α-D-glucopyranoside. That cell clone with the highest uptake activity for methyl-α-D-glucopyranoside, referred to hereinafter as CHO-TRex-hSGLT1, was selected for the further experiments and cultured further in the presence of 600 μg/ml Zeocin.
3. Measurement of the Inhibiting Action of Test Substances on the Uptake of methyl-α-D-glucopyranoside (α-MDG)
CHO-TRex-hSGLT1 cells were seeded in cell culture medium in a concentration of 50 000 cells per well in Cytostar-T scintillating 96-well plates (Amersham Biosciences) and cultivated for 24 h. The expression of the recombinant human SGLT1 was induced by adding 1 μg/ml tetracycline for a further 24 h. For α-MDG uptake experiments, the cells were washed with PBS and then starved at 37° C. in starvation medium (PBS supplemented with 10% fetal calf serum) for 1 hour. After a further washing step with transport assay buffer (140 mM sodium chloride, 2 mM potassium chloride, 1 mM magnesium chloride, 1 mM calcium chloride, 10 mM HEPES/Tris, pH 7.5), the cells were incubated at room temperature either in the absence or presence of test substances of different concentration for 15 min. The test substances were diluted correspondingly in transport assay buffer proceeding from a 10 mM stock solution in dimethyl sulfoxide (40 μl/well). The assay was subsequently started by adding 10 μl of a mixture of radiolabeled methyl-α-D-[U-^14C]glucopyranoside (Amersham) and unlabeled methyl-α-D-glucopyranoside (Acros). The final concentration of methyl-α-D-glucopyranoside in the assay was 50 μM. After an incubation time of 30 min at room temperature, the reaction was stopped by adding 50 μl/well of 10 mM methyl-α-D-glucopyranoside in transport assay buffer (4° C.), and the radioactivity taken up into the cells was determined in a MicroBeta Scintillation Microplate Reader (Wallac).
The half-maximum inhibiting action of the test substances (IC50 value) was determined as follows: • 4. Determination of the value for 0% inhibition. This is the measurement in the absence of substance, measured in sodium-containing transport assay buffer. • 5. Determination of the value for 100% inhibition. This is the measurement in the absence of substance, measured in sodium-free transport assay buffer (140 mM choline chloride, 2 mM potassium chloride, 1 mM magnesium chloride, 1 mM calcium chloride, 10 mM HEPES/Tris, pH7.5). • 6. Calculation of the percentage inhibition values of those measurements which were carried out in the presence of different concentrations of test substance. From this, it was then possible to determine that concentration of the test substance which reduces the uptake of the methyl-α-D-glucopyranoside by 50% (IC50 value).

The compound `CCc1ccc(Cc2cc(C3OC(CO)C(F)(F)C(O)C3O)ccc2Cl)cc1` (centres unmarked) [Example 1] yielded an IC50 of 8 µM.
Take `CCOc1ccc(Cc2cc(C3OC(CO)C(F)(F)C(O)C3O)ccc2Cl)cc1` (centres unmarked) [Example 2]: the IC50 is 8 µM.
In the case of `CCc1ccc(Cc2cc(C3OC(CO)C(F)C(O)C3O)ccc2Cl)cc1` (centres unmarked) [Example 3], 0.97 µM corresponded to half-maximal inhibition (IC50). This IC50 lies about 8.2-fold lower than the previous one.
Compound `COc1ccc(Cc2cccc(C3OC(CO)C(F)C(O)C3O)c2)cc1` (centres unmarked) [Example 5] displayed an IC50 of 0.174 µM.
Regarding `CCc1ccc(Cc2cc(C3OC(CO)C(F)C(O)C3O)ccc2Cl)s1` (centres unmarked) [Example 6], it took 0.475 µM to reach half-maximal inhibition (IC50).
`OCC1OC(c2ccc(Cl)c(Cc3cc4ccccc4s3)c2)C(O)C(O)C1F` (centres unmarked) [Example 7] returned an IC50 of 1.3 µM.
The compound `CCOC(=O)OCC1OC(c2ccc(F)c(Cc3ccc(OC)cc3)c2)C(O)C(O)C1F` (centres unmarked) [Example 8] displayed an IC50 of 6.6 µM.
The compound `COc1ccc(Cc2cc(C3OC(CO)C(F)C(O)C3O)ccc2F)cc1` (centres unmarked) [Example 9] returned an IC50 of 3.6 µM.
Regarding `CCOC(=O)OCC1OC(c2ccc(F)c(Cc3ccc(OC)cc3)c2)C(O)C(O)C1(F)F` (centres unmarked) [Example 10], half-maximal inhibition (IC50) was put at 13 µM. This IC50 lies about 3.6-fold higher than the previous one.
`COc1ccc(Cc2cc(C3OC(CO)C(F)(F)C(O)C3O)ccc2F)cc1` (centres unmarked) [Example 11] gave an IC50 of 16 µM.
The compound `CCOC(=O)OCC1OC(c2ccc(OC)c(Cc3ccc(OC)cc3)c2)C(O)C(O)C1F` (centres unmarked) [Example 12] came in with an IC50 of 1.5 µM. This IC50 is about 11-fold lower than that of the compound before.
`COc1ccc(Cc2cc(C3OC(CO)C(F)C(O)C3O)ccc2OC)cc1` (centres unmarked) [Example 13] came in with an IC50 of 0.152 µM. This IC50 is about 9.9-fold lower than that of the compound before.
For `COc1ccc(Cc2cc(C3OC(CO)C(F)(F)C(O)C3O)ccc2OC)cc1` (centres unmarked) [Example 15], the IC50 is 0.611 µM.
In the case of `CCOC(=O)OCC1OC(c2ccc(Cl)c(Cc3ccc(OCC)cc3)c2)C(O)C(O)C1F` (centres unmarked) [Example 16], the IC50 amounted to 25 µM.
In the case of `CCOc1ccc(Cc2cc(C3OC(CO)C(F)C(O)C3O)ccc2Cl)cc1` (centres unmarked) [Example 17] it was 0.757 µM.
Compound `CCOC(=O)OCC1OC(c2ccc(Cl)c(Cc3ccc(OCC)cc3)c2)C(O)C(O)C1(F)F` (centres unmarked) [Example 18] yielded an IC50 of 42 µM.
The compound `CCOC(=O)OCC1OC(c2ccc(Cl)c(Cc3ccc(OC)cc3)c2)C(O)C(O)C1(F)F` (centres unmarked) [Example 21] gave a half-maximal inhibitory concentration (IC50) of 50 µM.
The compound `COc1ccc(Cc2cc(C3OC(CO)C(F)(F)C(O)C3O)ccc2Cl)cc1` (centres unmarked) [Example 22] yielded an IC50 of 1.4 µM.
In the case of `CCOC(=O)OCC1OC(c2ccc(Cl)c(Cc3ccc(OC(F)(F)F)cc3)c2)C(O)C(O)C1F` (centres unmarked) [Example 24] it was 23 µM.
For the compound `OCC1OC(c2ccc(Cl)c(Cc3ccc(OC(F)(F)F)cc3)c2)C(O)C(O)C1F` (centres unmarked) [Example 25], it took 3.5 µM to reach half-maximal inhibition (IC50). Compared with the last compound, the IC50 is about 6.6-fold lower.
Regarding `CCOC(=O)OCC1OC(c2ccc(Cl)c(Cc3ccc(OC(F)(F)F)cc3)c2)C(O)C(O)C1(F)F` (centres unmarked) [Example 26], the IC50 was greater than 10 µM.
Turning to `OCC1OC(c2ccc(Cl)c(Cc3ccc(OC(F)(F)F)cc3)c2)C(O)C(O)C1(F)F` (centres unmarked) [Example 27], the IC50 amounted to 16 µM.
Take `OC[C@H]1O[C@@H](c2ccc(Cl)c(Cc3ccc(O)cc3)c2)[C@H](O)[C@@H](O)C1(F)F` [Example 30]: the IC50 is 1.2 µM.
As to `CC(C)Oc1ccc(Cc2cc([C@@H]3O[C@H](CO)C(F)(F)[C@H](O)[C@H]3O)ccc2Cl)cc1` [Example 31], the IC50 came to 12 µM.
Compound `Cc1ccc(C2OC(CO)C(F)(F)C(O)C2O)cc1Cc1ccc(O)cc1` (centres unmarked) [Example 33] showed an IC50 of 2.6 µM. Against the preceding compound, the IC50 is about 4.6-fold lower.
As for `COc1ccc(Cc2cc(C3OC(CO)C(F)(F)C(O)C3O)ccc2C)cc1` (centres unmarked) [Example 34], half-maximal inhibition (IC50) was put at 1.5 µM.
For the compound `CCOC(=O)OCC1OC(c2ccc(Cl)c(Cc3ccc(OC)cn3)c2)C(O)C(O)C1F` (centres unmarked) [Example 35], the IC50 turned out to be 4.3 µM.
As to `COc1ccc(Cc2cc(C3OC(CO)C(F)C(O)C3O)ccc2Cl)nc1` (centres unmarked) [Example 36], the IC50 came to 2.7 µM.
In the case of `CCOC(=O)OCC1OC(c2ccc(Cl)c(Cc3ccc(OC)cn3)c2)C(O)C(O)C1(F)F` (centres unmarked) [Example 37] it was 23.4 µM; in that of `COc1ccc(Cc2cc(C3OC(CO)C(F)(F)C(O)C3O)ccc2Cl)nc1` (centres unmarked) [Example 38], 26.5 µM; in that of `CCOC(=O)OC[C@H]1O[C@@H](c2ccc(OC(F)(F)F)c(Cc3ccc(OC)cc3)c2)[C@H](O)[C@@H](O)[C@@H]1F` [Example 39], 22.8 µM.
For `COc1ccc(Cc2cc([C@@H]3O[C@H](CO)[C@@H](F)[C@H](O)[C@H]3O)ccc2OC(F)(F)F)cc1` [Example 40], the IC50 is 0.232 µM. This IC50 lies about 98-fold lower than the previous one.
Regarding `CCOC(=O)OC[C@H]1O[C@@H](c2ccc(OC(F)(F)F)c(Cc3ccc(OC)cc3)c2)[C@H](O)[C@@H](O)C1(F)F` [Example 41], the 50% inhibitory concentration (IC50) was 11.8 µM.
Turning to `COc1ccc(Cc2cc([C@@H]3O[C@H](CO)C(F)(F)[C@H](O)[C@H]3O)ccc2OC(F)(F)F)cc1` [Example 42], the IC50 was found to be 3.3 µM.
Take `OC[C@H]1O[C@@H](c2ccc(Cl)c(Cc3ccc(Cl)cc3)c2)[C@H](O)[C@@H](O)[C@@H]1F` [Example 44]: it took 0.331 µM to reach half-maximal inhibition (IC50).
Compound `OC[C@H]1O[C@@H](c2ccc(Cl)c(Cc3ccc(Cl)cc3)c2)[C@H](O)[C@@H](O)C1(F)F` [Example 46] registered a half-maximal inhibitory concentration (IC50) of 2.6 µM.
In the case of `COc1ccc(Cc2cc([C@@H]3O[C@H](CO)[C@@H](F)[C@H](O)[C@H]3O)ccc2C(F)(F)F)cc1` [Example 48] it was 0.24 µM; in that of `CCOC(=O)OC[C@H]1O[C@@H](c2ccc(C(F)(F)F)c(Cc3ccc(OC)cc3)c2)[C@H](O)[C@@H](O)C1(F)F` [Example 49], greater than 100 µM.
In the case of `COc1ccc(Cc2cc([C@@H]3O[C@H](CO)C(F)(F)[C@H](O)[C@H]3O)ccc2C(F)(F)F)cc1` [Example 50] it was 7.3 µM; in that of `COc1ccc(Cc2cc(C3OC(CO)C(F)C(O)C3O)ccc2Br)cc1` (centres unmarked) [Example 56], 0.18 µM.
Take `CCc1ccc(Cc2cc(C3OC(CO)C(F)C(O)C3O)ccc2C)cc1` (centres unmarked) [Example 61]: the midpoint of inhibition, the IC50, lay at 0.461 µM.
